According to patent publication US20230295152A1 (SENDA BIOSCIENCES, INC., priority 2019, published 2023):

Biological target: T1, AHR (Homo sapiens, UniProt P35869)
T1 construct: other cell line with a DRE-luciferase reporter stably transfected; endogenous in cells; host or cells: HepG2 AhR-Lucia reporter cells
T1 sequence (P35869 11-848): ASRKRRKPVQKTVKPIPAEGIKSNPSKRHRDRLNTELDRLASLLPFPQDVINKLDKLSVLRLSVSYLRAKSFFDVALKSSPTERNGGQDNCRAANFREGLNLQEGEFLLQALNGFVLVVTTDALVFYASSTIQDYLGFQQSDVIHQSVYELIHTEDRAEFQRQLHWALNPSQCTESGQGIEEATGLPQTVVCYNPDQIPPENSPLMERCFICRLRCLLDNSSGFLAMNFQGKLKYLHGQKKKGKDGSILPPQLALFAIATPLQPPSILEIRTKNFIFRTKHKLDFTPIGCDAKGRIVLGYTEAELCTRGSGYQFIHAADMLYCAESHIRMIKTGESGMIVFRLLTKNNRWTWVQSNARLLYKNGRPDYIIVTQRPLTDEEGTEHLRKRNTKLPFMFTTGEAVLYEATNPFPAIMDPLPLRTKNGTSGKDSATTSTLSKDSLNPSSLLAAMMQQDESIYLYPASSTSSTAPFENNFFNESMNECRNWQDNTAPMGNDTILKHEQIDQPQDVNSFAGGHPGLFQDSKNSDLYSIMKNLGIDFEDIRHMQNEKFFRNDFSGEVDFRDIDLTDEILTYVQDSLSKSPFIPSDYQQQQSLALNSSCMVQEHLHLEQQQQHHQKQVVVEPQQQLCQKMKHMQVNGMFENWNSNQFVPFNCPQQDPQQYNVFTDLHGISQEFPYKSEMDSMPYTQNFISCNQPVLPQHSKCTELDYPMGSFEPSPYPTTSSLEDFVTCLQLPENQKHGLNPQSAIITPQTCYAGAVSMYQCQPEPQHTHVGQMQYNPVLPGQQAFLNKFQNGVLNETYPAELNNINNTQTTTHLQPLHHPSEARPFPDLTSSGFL
Test: DRE-Luciferase Reporter Assay, HepG2 AhR-Lucia reporter cells
Assay type: cell-based
Conditions: with AHR activating ligand at EC50, read-out: HepG2-Luc IC50
From the text: AHR binds to Dioxin Responsive Elements (DRE) upstream of genes that it activates. One measure of AHR activity is activation of a reporter gene, such as luciferase, downstream of one or multiple DRE elements. Luciferase activity will reflect activation and inhibition of AHR in the cells expressing his reporter. 20000 Human HepG2 liver carcinoma—AhR-Lucia reporter cells or Human HT29 colon adenocarcinoma—AhR reporter cells or other cell line with a DRE-luciferase reporter stably transfected were plated in Eagle's Minimal Essential Medium, 10% heat-inactivated FBS, 1× non-essential amino acids Pen-Strep (10,000 U/mL) and Normocin (100 ug/mL) in plates (96-well, 384-well or other plates) and incubated overnight at 37° C. in a CO2 incubator and treated with and without AhR antagonists at a log dilution starting at 100 uM.
After 1 hr that cells were plated an AHR activating ligand, such as TCDD, kynurenine, ITE (2-(1H-indole-3-ylcarbonyl)-4-thiazolecarboxylic methyl ester), VAF347, BNF (beta-naphthoflavone), FICZ (6-formylindolo(3,2-b) carbazole) or other AHR ligands at their specific EC50 concentration, were added to the cells with or without AHR antagonist.
Cells were incubated for 24 or 48 hours or another time point and then, supernatant was analyzed for determination of luciferase activity as a read-out of the AHR activation or inhibition. Luciferase was measured with the commercial kit QUANTI-Luc™ assay solution kit from Invivogen following the manufacturer's instructions.
The level of luciferase with only agonist ligand added was the maximum signal while the luciferase with […] was the minimum signal. IC50 values were determined as the concentration which inhibits half of the luciferase activity.

Row | IC50 [nM] | SMILES
1 | < 100 | CC(C)(O)Cn1cnc2c(N3CCCCC3)nc(-c3ccc(C(F)(F)F)nc3)cc2c1=O [Compound 179, 3-(2-hydroxy-2-methylpropyl)-8-(piperidin-1-yl)-6-(6-(trifluoromethyl)pyridin-3-yl)pyrido[3,4-d]pyrimidin-4(3H)-one]
2 | 100 to 500 | C[C@@H](CO)n1cnc2c(-c3cncc(F)c3)nc(-c3cncc(F)c3)cc2c1=O [Compound 78]
3 | 100 to 500 | Cc1cc(C(F)(F)F)ncc1-c1cc2c(=O)n([C@@H](C)CO)cnc2c(-c2cccnc2)n1 [Compound 75]
4 | > 500 | C[C@@H](C(=O)O)n1cnc2c(-c3cccnc3)nc(-c3ccc(C(F)(F)F)nc3)cc2c1=O [Compound 155, (S)-2-(4-oxo-8-(pyridin-3-yl)-6-(6-(trifluoromethyl)pyridin-3-yl)pyrido[3,4-d]pyrimidin-3(4H)-yl)propanoic acid]
5 | < 100 | C[C@@H](CO)n1cnc2c(N3CCCC3)nc(-c3ccc(C(F)(F)F)nc3)cc2c1=O [Compound 176, (S)-3-(1-hydroxypropan-2-yl)-8-(pyrrolidin-1-yl)-6-(6-(trifluoromethyl)pyridin-3-yl)pyrido[3,4-d]pyrimidin-4(3H)-one]
6 | < 100 | O=c1c2cc(-c3ccc(C(F)(F)F)nc3)nc(-c3cccnc3)c2ncn1C1CCCC1 [Compound 132, 3-cyclopentyl-8-(pyridin-3-yl)-6-(6-(trifluoromethyl)pyridin-3-yl)pyrido[3,4-d]pyrimidin-4(3H)-one]
7 | < 100 | CC(C)(O)Cn1cnc2c(-c3cn[nH]c3)nc(-c3ccc(C(F)(F)F)cn3)cc2c1=O [Compound 159, 3-(2-hydroxy-2-methylpropyl)-8-(1H-pyrazol-4-yl)-6-(5-(trifluoromethyl)pyridin-2-yl)pyrido[3,4-d]pyrimidin-4(3H)-one]
8 | > 500 | Cc1ccc(-c2cc3c(=O)n([C@@H](C)COCc4ccccc4)cnc3c(-c3cccc(F)c3)n2)cc1 [Compound 40, 3-[(1S)-2-benzyloxy-1-methyl-ethyl]-8-(3-fluorophenyl)-6-(p-tolyl)pyrido[3,4-d]pyrimidin-4-one]
9 | 100 to 500 | C[C@@H](CO)n1cnc2c(-c3cnsc3)nc(-c3cnsc3)cc2c1=O [Compound 56]
10 | < 100 | Cn1cc(-c2nc(-c3ccc(C4CC4)nc3)cc3c(=O)n(C[C@@H](O)C(F)(F)F)cnc23)cn1 [Compound 135, (R)-6-(6-cyclopropylpyridin-3-yl)-8-(1-methyl-1H-pyrazol-4-yl)-3-(3,3,3-trifluoro-2-hydroxypropyl)pyrido[3,4-d]pyrimidin-4(3H)-one]
11 | 100 to 500 | C[C@@H](CO)n1cnc2c(-c3cccnc3)nc(-c3cnsc3)cc2c1=O [Compound 53]
12 | 100 to 500 | C[C@@H](CO)n1cnc2c(-n3cncn3)nc(-c3ccc(C(F)(F)F)nc3)cc2c1=O [Compound 164, (S)-3-(1-hydroxypropan-2-yl)-8-(1H-1,2,4-triazol-1-yl)-6-(6-(trifluoromethyl)pyridin-3-yl)pyrido[3,4-d]pyrimidin-4(3H)-one]
13 | < 100 | O=c1c2cc(-c3ccc(C(F)(F)F)nc3)nc(-c3cccnc3)c2ncn1[C@@H]1CCS(=O)(=O)C1 [Compound 107, (R)-3-(1,1-dioxidotetrahydrothiophen-3-yl)-8-(pyridin-3-yl)-6-(6-(trifluoromethyl)pyridin-3-yl)pyrido[3,4-d]pyrimidin-4(3H)-one]
14 | < 100 | Cn1cc(-c2nc(-c3ccc(C(F)(F)F)cn3)cc3c(=O)n([C@@H]4COC[C@@H]4O)cnc23)cn1 [Compound 149, 3-((3R,4R)-4-hydroxytetrahydrofuran-3-yl)-8-(1-methyl-1H-pyrazol-4-yl)-6-(5-(trifluoromethyl)pyridin-2-yl)pyrido[3,4-d]pyrimidin-4(3H)-one]
15 | < 100 | CC(C)(O)Cn1cnc2c(-c3cccnc3)nc(-c3cnc(C(F)(F)F)s3)cc2c1=O [Compound 87]
16 | 100 to 500 | O=c1c2cc(-c3cnc(C(F)(F)F)s3)nc(-c3cccnc3)c2ncn1[C@@H]1COC[C@H]1O [Compound 173, 3-((3R,4S)-4-hydroxytetrahydrofuran-3-yl)-8-(pyridin-3-yl)-6-(2-(trifluoromethyl)thiazol-5-yl)pyrido[3,4-d]pyrimidin-4(3H)-one]

Row | IC50 [nM] | SMILES
17 | < 100 | C[C@@H](CO)n1cnc2c(N3CCOCC3)nc(-c3ccc(C(F)(F)F)nc3)cc2c1=O [Compound 178, (S)-3-(1-hydroxypropan-2-yl)-8-morpholino-6-(6-(trifluoromethyl)pyridin-3-yl)pyrido[3,4-d]pyrimidin-4(3H)-one]
18 | < 100 | Cc1ccc(-c2cc3c(=O)n([C@@H](C)CO)cnc3c(-c3cccnc3)n2)cn1 [Compound 98]
19 | 100 to 500 | Cc1ncccc1-c1nc(-c2ccc(C(F)(F)F)nc2)cc2c(=O)n([C@@H](C)CO)cnc12 [Compound 63]
20 | < 100 | C[C@@H](O)Cn1cnc2c(-c3cnn(C)c3)nc(-c3ccc(C(F)(F)F)cn3)cc2c1=O [Compound 141, (R)-3-(2-hydroxypropyl)-8-(1-methyl-1H-pyrazol-4-yl)-6-(5-(trifluoromethyl)pyridin-2-yl)pyrido[3,4-d]pyrimidin-4(3H)-one]
21 | < 100 | Cn1cc(-c2nc(-c3ccc(C(F)(F)F)nc3)cc3c(=O)n([C@@H]4COC[C@@H]4O)cnc23)cn1 [Compound 130, 3-((3R,4R)-4-hydroxytetrahydrofuran-3-yl)-8-(1-methyl-1H-pyrazol-4-yl)-6-(6-(trifluoromethyl)pyridin-3-yl)pyrido[3,4-d]pyrimidin-4(3H)-one]
22 | > 500 | COC(=O)c1ccc(-c2cc3c(=O)n([C@@H](C)CO)cnc3c(-c3cccnc3)n2)cn1 [Compound 52]
23 | < 100 | Cn1cc(-c2nc(-c3cnc(C(F)(F)F)s3)cc3c(=O)n([C@H]4COC[C@@H]4O)cnc23)cn1 [Compound 171, 3-((3S,4R)-4-hydroxytetrahydrofuran-3-yl)-8-(1-methyl-1H-pyrazol-4-yl)-6-(2-(trifluoromethyl)thiazol-5-yl)pyrido[3,4-d]pyrimidin-4(3H)-one]
24 | < 100 | C[C@@H](CO)n1cnc2c(-c3cncc(F)c3)nc(-c3ccc(C(F)(F)F)cc3)cc2c1=O [Compound 5]
25 | > 500 | C[C@@H](CO)n1cnc2c(-c3cccnc3)nc(C(=O)N(C)C)cc2c1=O [Compound 190, (S)-3-(1-hydroxypropan-2-yl)-N,N-dimethyl-4-oxo-8-(pyridin-3-yl)-3,4-dihydropyrido[3,4-d]pyrimidine-6-carboxamide]
26 | 100 to 500 | C[C@@H](CO)n1cnc2c(-c3cnn(C)c3)nc(-c3cccnc3)cc2c1=O [Compound 76]
27 | 100 to 500 | Cc1ncc(-c2cc3c(=O)n([C@@H](C)CO)cnc3c(-c3cccnc3)n2)cn1 [Compound 93]
28 | < 100 | Cn1cc(-c2nc(-c3ccc(Cl)cc3)cc3c(=O)n([C@@H]4COC[C@H]4O)cnc23)cn1 [Compound 153, 6-(4-Chlorophenyl)-3-((3R,4S)-4-hydroxytetrahydrofuran-3-yl)-8-(1-methyl-1H-pyrazol-4-yl)pyrido[3,4-d]pyrimidin-4(3H)-one]
29 | < 100 | C[C@@H](n1cnc2c(-c3cccc(F)c3)nc(-c3ccc(Cl)cc3)cc2c1=O)C(C)(C)O [Compound 39]
30 | < 100 | C[C@@H](CO)n1cnc2c(-n3cccn3)nc(-c3ccc(C(F)(F)F)nc3)cc2c1=O [Compound 165, (S)-3-(1-hydroxypropan-2-yl)-8-(1H-pyrazol-1-yl)-6-(6-(trifluoromethyl)pyridin-3-yl)pyrido[3,4-d]pyrimidin-4(3H)-one]
31 | < 100 | Cc1ccc(-c2cc3c(=O)n([C@@H](C)CO)cnc3c(-c3cccnc3)n2)nc1 [Compound 186, (S)-3-(1-hydroxypropan-2-yl)-6-(5-methylpyridin-2-yl)-8-(pyridin-3-yl)pyrido[3,4-d]pyrimidin-4(3H)-one]

Row | SMILES | IC50 [nM]
32 | O=c1c2cc(-c3ccc(Cl)cc3)nc(-c3cccnc3)c2ncn1C1COCC1O (racemic) [Compound 29] | < 100
